{"source": "paper PMC9974123", "about": "“Targeting prolyl-tRNA synthetase via a series of ATP-mimetics to accelerate drug discovery against toxoplasmosis” (PLOS Pathogens, 2023)", "key": {"Toxoplasma gondii WT": {"tested_on": "T1, Toxoplasma gondii WT", "T1 construct": "RH", "experiment": "microbe, parasite or virus in culture", "design": "species or system human foreskin fibroblasts (HFF); T. gondii RH NLuc tachyzoite growth in HFF monolayer, Nano-Glo luciferase luminescence", "details": "Fibroblast, 48 h", "description": "Compounds were synthesized (HPLC purity > 95%) according to reported procedures. A confluent Human Foreskin Fibroblast (HFF) monolayer was infected with 2,000 tachyzoites of RH parasites expressing the NLuc luciferase (RH NLuc) for 2 h to allow parasite invasion. Each compound was added to the culture medium, and infected cells were incubated at 37° C for 48 h. To measure luminescence, the medium was replaced by 50 μL of PBS, and the luminescence assay was performed using Nano-Glo Luciferase Assay System according to the manufacturer’s instructions (Promega). After 3 min of incubation, the luminescence was measured using the CLARIOstar (BMG Labtech) plate reader. EC50 was determined using a non-linear regression analysis of normalized data assuming a sigmoidal dose-response. […] Statistical analyses were performed using a one-way ANOVA test with GraphPad software.  Fig 4 Activity of five compounds on PRS edited parasites. A-D) EC50 values for L95, L96, L97, and L36 were determined for wild-type (WT) and the engineered PRS mutant strains (T477A and T592S). Data are mean value ±SD from at least 2 independent biological replicates, each with 3 technical replicates. Associated dose-response curves are shown in S2C Fig. Higher EC50 values for the mutants confirm that PRS is the molecular target of all five compounds tested. The P-values were calculated using one-way ANOVA analysis and multiple-comparison post hoc tests. n.s., not significant. Associated dose-response curves are shown in S1 Fig. E) The EC50 (nM) values for the engineered PRS mutant strains (T477A and T592S) are shown in comparison with the TgPRS wild type. F) The catalytic cavity of TgPRS is shown with two inhibitors along with their electron densities–HFG (green) and L95 (red)–bound to the tRNA and L-pro binding sites and the ATP binding site respectively. The ribbon of PRS is in cyan whilst the resistance-conferring mutating residues T477 and T592 to L35 are shown in purple. (n.d.–not detected)."}, "[1]": {"target": "T2, Toxoplasma gondii prolyl-tRNA synthetase (TgPRS) (Toxoplasma gondii, UniProt S8G8I1)", "T2 construct": "gene TGME49_219850; length 334–830", "T2 sequence (S8G8I1 entry or part of it)": "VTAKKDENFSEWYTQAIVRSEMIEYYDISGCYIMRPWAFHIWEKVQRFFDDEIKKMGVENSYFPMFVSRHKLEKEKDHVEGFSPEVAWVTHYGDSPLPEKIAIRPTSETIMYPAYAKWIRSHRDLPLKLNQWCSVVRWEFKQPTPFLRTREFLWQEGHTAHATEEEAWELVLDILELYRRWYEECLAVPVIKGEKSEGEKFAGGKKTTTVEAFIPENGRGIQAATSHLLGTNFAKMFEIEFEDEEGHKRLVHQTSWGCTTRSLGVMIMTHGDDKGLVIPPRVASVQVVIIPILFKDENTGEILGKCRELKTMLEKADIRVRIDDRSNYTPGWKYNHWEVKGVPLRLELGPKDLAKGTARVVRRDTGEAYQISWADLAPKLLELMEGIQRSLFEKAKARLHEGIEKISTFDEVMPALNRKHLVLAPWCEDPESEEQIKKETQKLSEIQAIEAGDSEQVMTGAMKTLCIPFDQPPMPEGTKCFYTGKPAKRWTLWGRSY", "experiment": "co-crystal structure with L-pro; aminoacylation inhibition (malachite green); thermal shift (ΔTm […] °C with L-Pro)", "type": "biochemical"}, "[2]": {"target": "T2, Toxoplasma gondii prolyl-tRNA synthetase (TgPRS)", "experiment": "co-crystal structure with L-pro; aminoacylation inhibition (malachite green); thermal shift (ΔTm […] °C with L-Pro)", "type": "biochemical", "remark": "listed apart in the source"}, "[3]": {"target": "T3, Homo sapiens prolyl-tRNA synthetase (HsPRS) (Homo sapiens, UniProt P07814)", "T3 construct": "gene EPRS1; length 1015–1506", "T3 sequence (P07814 1015-1506)": "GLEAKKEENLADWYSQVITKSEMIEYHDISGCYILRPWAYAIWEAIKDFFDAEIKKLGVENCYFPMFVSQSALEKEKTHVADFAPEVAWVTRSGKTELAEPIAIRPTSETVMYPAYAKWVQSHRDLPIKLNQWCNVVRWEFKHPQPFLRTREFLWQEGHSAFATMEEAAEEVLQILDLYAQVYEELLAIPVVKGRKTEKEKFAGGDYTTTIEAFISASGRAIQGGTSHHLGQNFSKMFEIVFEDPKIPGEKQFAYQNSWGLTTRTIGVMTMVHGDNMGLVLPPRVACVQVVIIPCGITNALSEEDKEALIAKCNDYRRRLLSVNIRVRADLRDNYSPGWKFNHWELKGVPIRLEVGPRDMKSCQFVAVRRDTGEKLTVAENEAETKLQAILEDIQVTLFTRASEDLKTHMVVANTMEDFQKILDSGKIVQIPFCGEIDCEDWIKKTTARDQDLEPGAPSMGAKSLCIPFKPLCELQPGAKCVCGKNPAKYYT", "experiment": "co-crystal structure with L-pro; aminoacylation inhibition; thermal shift (ΔTm […] °C with L-pro)", "type": "binding"}, "[4]": {"target": "T2, Toxoplasma gondii prolyl-tRNA synthetase (TgPRS)", "experiment": "co-crystal structure with L-pro; aminoacylation inhibition (malachite green); thermal shift (ΔTm […] °C with L-Pro)", "type": "biochemical", "remark": "listed apart in the source"}, "[5]": {"target": "T3, Homo sapiens prolyl-tRNA synthetase (HsPRS)", "experiment": "co-crystal structure with L-pro; aminoacylation inhibition; thermal shift (ΔTm […] °C with L-pro)", "type": "binding", "remark": "listed apart in the source"}, "[6]": {"target": "T2, Toxoplasma gondii prolyl-tRNA synthetase (TgPRS)", "experiment": "co-crystal structure with L-pro; aminoacylation inhibition (malachite green); thermal shift (ΔTm […] °C with L-Pro)", "type": "biochemical", "remark": "listed apart in the source"}, "[7]": {"target": "T3, Homo sapiens prolyl-tRNA synthetase (HsPRS)", "experiment": "co-crystal structure with L-pro; aminoacylation inhibition; thermal shift (ΔTm […] °C with L-pro)", "type": "binding", "remark": "listed apart in the source"}, "[8]": {"target": "T2, Toxoplasma gondii prolyl-tRNA synthetase (TgPRS)", "experiment": "co-crystal structure with L-pro; aminoacylation inhibition (malachite green); thermal shift (ΔTm […] °C with L-Pro)", "type": "biochemical", "remark": "listed apart in the source"}}, "note": "Like-named read-outs stand apart in the source and are kept apart here."}
{"smiles": "Cc1cc(N2CC[C@@](C#N)(C3(C)CC3)C2=O)cc(C(=O)NCc2cc(F)cc(-c3cnn(C)c3)c2)n1", "note": "[L35]", "values": [{"measurement": "EC50", "setting": "Toxoplasma gondii WT; read-out: EC50 Treated-L35 (nM)", "value": "31 ± 12", "unit": "nM"}, {"measurement": "IC50", "setting": "[1]", "value": 9.2, "unit": "nM"}]}
{"smiles": "Cc1cc(N2CC[C@](C#N)(C3(C)CC3)C2=O)cc(C(=O)NCc2cc(F)cc(-c3cnn(C)c3)c2)n1", "note": "[L36]", "values": [{"measurement": "EC50", "setting": "Toxoplasma gondii WT; read-out: EC50 Treated-L36 (nM)", "value": "5800 ± 350", "unit": "nM"}, {"measurement": "IC50", "setting": "[2]", "value": 2410, "unit": "nM"}]}
{"smiles": "Cc1cc(N2CC[C@@](C#N)(C3CC3)C2=O)cc(NC(=O)Cc2ccccc2)n1", "note": "[L95]", "values": [{"measurement": "co-crystal structure with L-pro; aminoacylation inhibition; thermal shift (ΔTm 1)", "setting": "[3]", "value": "The complex structure of HsPRS with L95, L96, and L97 was determined"}, {"measurement": "EC50", "setting": "Toxoplasma gondii WT; read-out: EC50 Treated-L95 (nM)", "value": "277 ± 6", "unit": "nM"}, {"measurement": "IC50", "setting": "[4]", "value": 140, "unit": "nM"}]}
{"smiles": "COc1cncc(-c2cc(F)cc(CNC(=O)c3cc(N4CC[C@@](C#N)(C5CC5)C4=O)cc(C)n3)c2)c1", "note": "[L96]", "values": [{"measurement": "co-crystal structure with L-pro; aminoacylation inhibition; thermal shift (ΔTm 2)", "setting": "[5]", "value": "The complex structure of HsPRS with L95, L96, and L97 was determined"}, {"measurement": "EC50", "setting": "Toxoplasma gondii WT; read-out: EC50 Treated-L96 (nM)", "value": "106 ± 36", "unit": "nM"}, {"measurement": "IC50", "setting": "[6]", "value": 79.7, "unit": "nM"}]}
{"smiles": "Cc1cc(N2CCC(CO)(C3CC3)C2=O)cc(C(=O)NCc2cc(F)cc(-c3cnn(C)c3)c2)n1", "note": "(centres unmarked) [L97]", "values": [{"measurement": "co-crystal structure with L-pro; aminoacylation inhibition; thermal shift (ΔTm 1)", "setting": "[7]", "value": "The complex structure of HsPRS with L95, L96, and L97 was determined"}, {"measurement": "IC50", "setting": "[8]", "value": 50, "unit": "nM"}, {"measurement": "EC50", "setting": "Toxoplasma gondii WT; read-out: EC50 Treated-L97 (nM)", "value": "544 ± 130", "unit": "nM"}]}
{"smiles": "CCc1nc(N)nc(N)c1-c1ccc(Cl)cc1", "note": "[PYR, pyrimethamine]", "values": [{"measurement": "EC50", "setting": "Toxoplasma gondii WT; read-out: EC50 Treated-PYR (nM)", "value": "174 ± 60", "unit": "nM"}]}
